Values after ≈ are worked out from the molar mass of the structure shown.
Legend:
[1] = biological target: Dual specificity tyrosine-phosphorylation-regulated kinase 1A (Homo sapiens, UniProt Q13627)
[2] = biological target: Dual specificity tyrosine-phosphorylation-regulated kinase 1B (Homo sapiens, UniProt Q9Y463)
SRSF protein kinase 3 [3] = biological target: T1, SRSF protein kinase 3 (Homo sapiens, UniProt Q9UPE1)
[4] = biological target: Dual specificity protein kinase CLK2 (Homo sapiens, UniProt P49760); assay: Inhibition of human CLK2 using myelin basic protein as substrate in presence of [gamma-33p]-ATP by radiometric hotspot kinase
[5] = biological target: T2, Dual specificity tyrosine-phosphorylation-regulated kinase 2 (Homo sapiens, UniProt Q92630)
T2 sequence (Q92630 whole entry): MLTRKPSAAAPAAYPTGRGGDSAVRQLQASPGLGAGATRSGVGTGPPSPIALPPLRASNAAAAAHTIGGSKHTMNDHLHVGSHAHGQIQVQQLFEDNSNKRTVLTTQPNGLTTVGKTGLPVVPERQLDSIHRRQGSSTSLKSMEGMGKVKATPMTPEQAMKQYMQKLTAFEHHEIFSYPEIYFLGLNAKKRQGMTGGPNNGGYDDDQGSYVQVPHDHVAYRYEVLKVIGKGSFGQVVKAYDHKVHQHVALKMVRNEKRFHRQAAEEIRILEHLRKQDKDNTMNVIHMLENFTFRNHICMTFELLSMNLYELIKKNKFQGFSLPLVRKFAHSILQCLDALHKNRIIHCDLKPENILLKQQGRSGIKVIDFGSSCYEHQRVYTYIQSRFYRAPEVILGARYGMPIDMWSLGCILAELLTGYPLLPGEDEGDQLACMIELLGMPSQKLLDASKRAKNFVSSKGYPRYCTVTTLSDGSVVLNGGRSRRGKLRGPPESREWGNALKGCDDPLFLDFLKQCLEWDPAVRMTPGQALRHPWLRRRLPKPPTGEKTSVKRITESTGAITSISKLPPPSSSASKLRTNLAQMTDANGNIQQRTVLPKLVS

[6] = biological target: T3, Dual specificity tyrosine-phosphorylation-regulated kinase 3 (Homo sapiens, UniProt O43781)
T3 sequence (O43781 whole entry): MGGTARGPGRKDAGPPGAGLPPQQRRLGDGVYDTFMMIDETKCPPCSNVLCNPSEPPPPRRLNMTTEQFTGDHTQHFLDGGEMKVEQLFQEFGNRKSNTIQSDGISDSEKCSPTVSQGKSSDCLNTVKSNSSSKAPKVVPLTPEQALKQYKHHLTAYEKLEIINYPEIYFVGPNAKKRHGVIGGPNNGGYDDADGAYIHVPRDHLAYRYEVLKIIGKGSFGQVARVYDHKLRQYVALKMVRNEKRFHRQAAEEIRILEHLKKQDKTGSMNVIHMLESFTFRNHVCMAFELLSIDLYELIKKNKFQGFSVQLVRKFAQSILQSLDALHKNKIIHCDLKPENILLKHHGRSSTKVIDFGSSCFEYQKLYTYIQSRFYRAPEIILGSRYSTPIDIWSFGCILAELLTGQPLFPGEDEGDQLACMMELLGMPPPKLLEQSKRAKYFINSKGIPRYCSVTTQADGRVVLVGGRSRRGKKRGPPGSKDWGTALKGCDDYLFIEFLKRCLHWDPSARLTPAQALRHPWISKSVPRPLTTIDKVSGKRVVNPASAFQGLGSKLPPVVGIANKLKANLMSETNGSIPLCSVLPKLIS

SRSF protein kinase 1 [7] = biological target: T4, SRSF protein kinase 1 (Homo sapiens, UniProt Q96SB4)
SRSF protein kinase 2 [8] = biological target: T5, SRSF protein kinase 2 (Homo sapiens, UniProt P78362)
Target sequence in this assay (P78362 whole entry): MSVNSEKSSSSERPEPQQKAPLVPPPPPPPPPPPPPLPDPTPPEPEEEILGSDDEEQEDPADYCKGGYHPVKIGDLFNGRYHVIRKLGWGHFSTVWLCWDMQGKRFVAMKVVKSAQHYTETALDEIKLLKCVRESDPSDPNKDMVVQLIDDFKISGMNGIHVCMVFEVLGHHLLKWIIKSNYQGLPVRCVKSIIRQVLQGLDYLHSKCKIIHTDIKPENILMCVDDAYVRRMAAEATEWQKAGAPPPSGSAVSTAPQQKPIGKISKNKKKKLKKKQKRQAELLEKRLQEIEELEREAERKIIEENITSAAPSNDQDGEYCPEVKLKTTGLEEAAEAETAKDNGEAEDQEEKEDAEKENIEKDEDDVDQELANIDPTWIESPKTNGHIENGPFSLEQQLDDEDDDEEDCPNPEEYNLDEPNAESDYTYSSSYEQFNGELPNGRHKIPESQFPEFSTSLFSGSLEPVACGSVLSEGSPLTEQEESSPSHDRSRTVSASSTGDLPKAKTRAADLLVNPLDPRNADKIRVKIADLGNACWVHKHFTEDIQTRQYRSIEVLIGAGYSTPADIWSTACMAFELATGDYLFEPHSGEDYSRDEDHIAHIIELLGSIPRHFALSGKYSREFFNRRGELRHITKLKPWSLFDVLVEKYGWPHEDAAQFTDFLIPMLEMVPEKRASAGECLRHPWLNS

[9] = biological target: Dual specificity protein kinase CLK3 (Homo sapiens, UniProt P49761); assay: Inhibition of human CLK3 using myelin basic protein as substrate in presence of [gamma-33p]-ATP by radiometric hotspot kinase
[10] = biological target: Dual specificity protein kinase CLK4 (Homo sapiens, UniProt Q9HAZ1); assay: Inhibition of human CLK4 using myelin basic protein as substrate in presence of [gamma-33p]-ATP by radiometric hotspot kinase
Focal adhesion kinase 1 = Focal adhesion kinase 1 (Homo sapiens, UniProt Q05397)
Description: Inhibition of N-terminal NanoLuc-tagged full length FAK (unknown origin) transfected in HEK293T cells pre-incubated with compound for 2 hrs followed by Nano-Glo substrate addition by NanoBRET analysis

[11] = biological target: Dual specificity protein kinase CLK1 (Homo sapiens, UniProt P49759); assay: Inhibition of human CLK1 using myelin basic protein as substrate in presence of [gamma-33p]-ATP by radiometric hotspot kinase
SRSF protein kinase 3 [12] = biological target: T1, SRSF protein kinase 3; remark: listed apart in the source
Description: Inhibition of N-terminal nLuc-fused SRPK3 (unknown origin) transfected in intact HEK293T cells by NanoBRET assay

SRSF protein kinase 2 [13] = biological target: T5, SRSF protein kinase 2; remark: listed apart in the source
Target sequence in this assay (P78362 whole entry): as above
Description: Inhibition of N-terminal nLuc-fused SRPK2 (unknown origin) transfected in lysed HEK293T cells by NanoBRET assay

[14] = Efflux ratio of apparent permeability in human Caco-2 cells
[15] = Clearance in human hepatocytes measured per million of cells
[16] = Apparent permeability in human Caco-2 cells
[17] = Clearance in mouse hepatocytes measured per million of cells
physchem = conditions: phosphate buffer, pH 7.4
[18] = Metabolic stability in mouse liver microsomes assessed as intrinsic clearance
[19] = Metabolic stability in human liver microsomes assessed as intrinsic clearance
[20] = Thermodynamic solubility of the compound in phosphate buffer at pH 7.4
SRSF protein kinase 1 [21] = biological target: T4, SRSF protein kinase 1; assay: Inhibition of C-terminal nLuc-fused SRPK1 (unknown origin) transfected in intact HEK293T cells by NanoBRET assay
SRSF protein kinase 3 [22] = biological target: T1, SRSF protein kinase 3; conditions: time 10.0 min
SRSF protein kinase 1 [23] = biological target: T4, SRSF protein kinase 1; conditions: time 10.0 min
SRSF protein kinase 2 [24] = biological target: T5, SRSF protein kinase 2; conditions: time 10.0 min
Target sequence in this assay (P78362 whole entry, looked up): as the sequence (P78362 whole entry) above

Chain of Dual specificity protein kinase CLK1 (P49759 whole entry): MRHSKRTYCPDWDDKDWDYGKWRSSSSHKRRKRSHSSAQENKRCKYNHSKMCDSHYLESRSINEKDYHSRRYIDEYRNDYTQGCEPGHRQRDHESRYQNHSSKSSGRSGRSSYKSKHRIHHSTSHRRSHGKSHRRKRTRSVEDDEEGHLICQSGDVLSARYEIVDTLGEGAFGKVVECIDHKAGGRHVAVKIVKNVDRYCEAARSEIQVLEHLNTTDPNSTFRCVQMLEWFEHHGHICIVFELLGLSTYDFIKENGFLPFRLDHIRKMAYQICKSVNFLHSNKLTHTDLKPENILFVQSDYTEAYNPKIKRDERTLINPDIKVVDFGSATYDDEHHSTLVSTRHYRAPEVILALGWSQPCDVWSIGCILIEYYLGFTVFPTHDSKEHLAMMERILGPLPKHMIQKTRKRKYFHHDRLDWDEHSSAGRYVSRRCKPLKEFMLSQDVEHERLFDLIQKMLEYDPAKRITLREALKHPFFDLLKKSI
Chain of Dual specificity tyrosine-phosphorylation-regulated kinase 1B (Q9Y463 whole entry): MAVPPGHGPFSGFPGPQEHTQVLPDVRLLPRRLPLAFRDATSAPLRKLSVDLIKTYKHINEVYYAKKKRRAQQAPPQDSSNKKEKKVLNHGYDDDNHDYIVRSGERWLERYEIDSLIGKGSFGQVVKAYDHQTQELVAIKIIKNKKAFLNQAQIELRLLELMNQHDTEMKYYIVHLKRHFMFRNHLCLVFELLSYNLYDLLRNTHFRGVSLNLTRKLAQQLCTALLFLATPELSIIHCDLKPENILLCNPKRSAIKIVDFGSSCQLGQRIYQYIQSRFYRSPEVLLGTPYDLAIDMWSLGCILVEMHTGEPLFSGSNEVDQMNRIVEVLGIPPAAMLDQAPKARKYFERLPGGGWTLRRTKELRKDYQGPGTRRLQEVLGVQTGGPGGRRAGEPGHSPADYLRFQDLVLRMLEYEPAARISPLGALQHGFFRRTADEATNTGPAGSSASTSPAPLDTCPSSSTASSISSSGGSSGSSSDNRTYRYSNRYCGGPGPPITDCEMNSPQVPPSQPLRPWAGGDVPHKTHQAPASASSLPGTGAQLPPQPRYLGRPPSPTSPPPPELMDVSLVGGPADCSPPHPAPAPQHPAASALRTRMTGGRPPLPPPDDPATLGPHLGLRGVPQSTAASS
Chain of Dual specificity protein kinase CLK4 (Q9HAZ1 whole entry): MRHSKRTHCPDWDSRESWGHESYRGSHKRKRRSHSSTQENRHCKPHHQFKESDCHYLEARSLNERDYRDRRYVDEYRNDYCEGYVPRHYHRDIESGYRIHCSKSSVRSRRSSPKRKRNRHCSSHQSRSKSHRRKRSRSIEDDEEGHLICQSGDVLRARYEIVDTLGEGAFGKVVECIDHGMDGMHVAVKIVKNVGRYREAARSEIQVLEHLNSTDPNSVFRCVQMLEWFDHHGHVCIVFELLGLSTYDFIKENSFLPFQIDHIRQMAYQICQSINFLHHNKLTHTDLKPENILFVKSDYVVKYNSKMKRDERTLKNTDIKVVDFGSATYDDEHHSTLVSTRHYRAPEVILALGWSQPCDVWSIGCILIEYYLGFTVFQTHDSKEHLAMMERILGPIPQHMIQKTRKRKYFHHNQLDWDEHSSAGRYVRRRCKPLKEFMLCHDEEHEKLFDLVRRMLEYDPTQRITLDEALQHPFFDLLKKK
Chain of Dual specificity protein kinase CLK2 (P49760 whole entry): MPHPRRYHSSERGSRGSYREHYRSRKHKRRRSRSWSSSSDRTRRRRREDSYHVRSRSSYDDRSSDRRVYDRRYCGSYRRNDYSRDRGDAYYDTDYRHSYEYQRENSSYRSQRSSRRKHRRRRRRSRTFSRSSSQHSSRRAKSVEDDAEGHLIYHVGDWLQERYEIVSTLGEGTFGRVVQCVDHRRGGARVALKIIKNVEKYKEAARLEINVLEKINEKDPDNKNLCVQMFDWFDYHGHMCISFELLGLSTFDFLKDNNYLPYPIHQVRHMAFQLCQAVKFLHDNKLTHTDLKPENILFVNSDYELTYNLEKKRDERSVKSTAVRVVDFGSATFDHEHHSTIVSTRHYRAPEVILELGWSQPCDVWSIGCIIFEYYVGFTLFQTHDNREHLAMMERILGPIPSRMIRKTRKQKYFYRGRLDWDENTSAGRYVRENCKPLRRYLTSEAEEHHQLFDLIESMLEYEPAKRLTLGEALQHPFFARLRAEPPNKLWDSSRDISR
T1 sequence (Q9UPE1 whole entry): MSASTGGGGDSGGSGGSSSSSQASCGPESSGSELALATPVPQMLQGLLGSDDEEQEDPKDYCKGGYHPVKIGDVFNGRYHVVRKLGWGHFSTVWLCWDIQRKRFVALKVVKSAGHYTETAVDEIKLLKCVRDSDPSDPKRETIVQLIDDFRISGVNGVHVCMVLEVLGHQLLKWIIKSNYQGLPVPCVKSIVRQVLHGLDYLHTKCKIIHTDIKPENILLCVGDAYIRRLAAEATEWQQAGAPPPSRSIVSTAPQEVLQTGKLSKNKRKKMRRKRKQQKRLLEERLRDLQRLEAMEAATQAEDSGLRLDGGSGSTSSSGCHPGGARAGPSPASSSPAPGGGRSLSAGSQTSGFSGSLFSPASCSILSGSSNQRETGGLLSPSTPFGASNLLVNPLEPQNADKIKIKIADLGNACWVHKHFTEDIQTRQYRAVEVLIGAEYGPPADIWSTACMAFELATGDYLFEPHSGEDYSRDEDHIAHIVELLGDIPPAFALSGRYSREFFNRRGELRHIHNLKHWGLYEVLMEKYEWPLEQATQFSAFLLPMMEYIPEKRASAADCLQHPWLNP
Chain of Dual specificity protein kinase CLK3 (P49761 whole entry): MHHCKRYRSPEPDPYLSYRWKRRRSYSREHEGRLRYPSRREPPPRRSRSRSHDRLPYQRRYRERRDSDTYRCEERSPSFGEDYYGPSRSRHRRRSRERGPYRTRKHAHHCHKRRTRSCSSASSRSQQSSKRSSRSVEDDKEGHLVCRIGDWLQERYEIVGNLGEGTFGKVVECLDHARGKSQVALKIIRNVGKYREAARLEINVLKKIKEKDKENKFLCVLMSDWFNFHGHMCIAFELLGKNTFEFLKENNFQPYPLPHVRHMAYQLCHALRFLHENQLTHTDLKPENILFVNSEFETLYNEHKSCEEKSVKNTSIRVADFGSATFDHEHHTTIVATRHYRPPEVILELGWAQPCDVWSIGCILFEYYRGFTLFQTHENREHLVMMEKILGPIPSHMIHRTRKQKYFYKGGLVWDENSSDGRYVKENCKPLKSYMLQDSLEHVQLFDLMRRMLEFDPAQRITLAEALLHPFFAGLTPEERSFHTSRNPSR
T4 sequence (Q96SB4 whole entry): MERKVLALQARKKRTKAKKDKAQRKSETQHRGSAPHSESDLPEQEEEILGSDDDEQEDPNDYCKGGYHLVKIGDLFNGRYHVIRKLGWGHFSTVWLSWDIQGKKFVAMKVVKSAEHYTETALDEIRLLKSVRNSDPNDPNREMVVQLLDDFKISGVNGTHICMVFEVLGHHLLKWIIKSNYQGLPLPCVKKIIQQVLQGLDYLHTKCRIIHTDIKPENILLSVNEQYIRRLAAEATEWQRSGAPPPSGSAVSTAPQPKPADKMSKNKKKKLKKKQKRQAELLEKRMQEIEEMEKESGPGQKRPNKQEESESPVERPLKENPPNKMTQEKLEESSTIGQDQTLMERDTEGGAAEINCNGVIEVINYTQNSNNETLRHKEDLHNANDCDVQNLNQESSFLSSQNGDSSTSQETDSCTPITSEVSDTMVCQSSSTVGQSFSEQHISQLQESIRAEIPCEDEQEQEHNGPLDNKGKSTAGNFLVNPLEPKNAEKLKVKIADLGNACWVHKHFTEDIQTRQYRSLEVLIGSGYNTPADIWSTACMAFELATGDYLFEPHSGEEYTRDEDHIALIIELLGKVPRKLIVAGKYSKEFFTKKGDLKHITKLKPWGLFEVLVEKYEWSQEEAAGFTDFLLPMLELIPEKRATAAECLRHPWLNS

Structure (SMILES) | IC50 [1] | IC50 [2] | IC50 (SRSF protein kinase 3 [3]) | IC50 [4] | IC50 [5] | IC50 [6] | IC50 (SRSF protein kinase 1 [7]) | IC50 (SRSF protein kinase 2 [8]) | IC50 [9] | IC50 [10] | IC50 [11] | other results
CCc1cc2c(cc1-c1cccc(S(=O)(=O)F)c1)C(C)(C)c1[nH]c3cc(C#N)ccc3c1C2=O | 225 nM | 293 nM | 4.81 nM | 920 nM | 5720 nM | 6780 nM | 1.68 nM | 2.54 nM | > 30000 nM | 159 nM | – | –
c1ccc(-c2nn[nH]n2)nc1 | – | – | – | – | – | – | – | – | – | – | – | EC50 (Focal adhesion kinase 1): 253000 nM
O=C(Nc1cc(C(F)(F)F)ccc1N1CCN(Cc2ccccn2)CC1)c1ccc(-c2ccncc2)o1 | 1580 nM | 1840 nM | 166 nM | 5700 nM | > 10000 nM | > 10000 nM | – | 256 nM | > 10000 nM | 266 nM | 839 nM | EC50 (SRSF protein kinase 3 [12]): 6150 nM; EC50 (SRSF protein kinase 2 [13]): 648 nM
CN(c1ncccc1CNc1ccnc(-c2cc3cc(Cl)ccc3[nH]2)n1)S(C)(=O)=O | – | – | – | – | – | – | > 10000 nM | > 10000 nM | – | – | – | efflux ratio [14]: 1.6; hepatocyte CLint [15]: 156 µL/min/1e6 cells; Papp [16]: 2 ×10⁻⁶ cm/s; hepatocyte CLint [17]: 1100 µL/min/1e6 cells; solubility kinetic at 2 h (physchem): 2.3 µM (≈ 1.02 µg/mL); CLint [18]: 784 µL/min/mg; CLint [19]: 771 µL/min/mg; solubility thermodynamic [20]: < 1 µg/mL
c1ccc(-c2nc3ccccc3[nH]2)nc1 | – | – | – | – | – | – | – | – | – | – | – | EC50 (Focal adhesion kinase 1): 103000 nM
O=C(Nc1cc(C(F)(F)F)ccc1N1CCCCC1)c1ccncc1 | > 10000 nM | > 10000 nM | 27 nM | > 10000 nM | > 10000 nM | > 10000 nM | 83 nM | 1510 nM | > 10000 nM | > 10000 nM | > 10000 nM | EC50 (SRSF protein kinase 3 [12]): 398 nM; EC50 (SRSF protein kinase 2 [13]): 2560 nM; EC50 (SRSF protein kinase 1 [21]): 2360 nM
CN(c1ncccc1CNc1ccnc(-c2nc3c(F)c(Cl)ccc3[nH]2)n1)S(C)(=O)=O | > 10000 nM | > 10000 nM | – | > 10000 nM | > 10000 nM | > 10000 nM | – | – | > 10000 nM | > 10000 nM | > 10000 nM | ΔTm (SRSF protein kinase 3 [22]): 9.6 °C; hepatocyte CLint [15]: 51 µL/min/1e6 cells; Papp [16]: 7.2 ×10⁻⁶ cm/s; hepatocyte CLint [17]: 354 µL/min/1e6 cells; solubility kinetic at 2 h (physchem): < 2 µM; CLint [18]: 196 µL/min/mg; ΔTm (SRSF protein kinase 1 [23]): 9.1 °C; CLint [19]: 504 µL/min/mg; solubility thermodynamic [20]: < 1 µg/mL; ΔTm (SRSF protein kinase 2 [24]): 4 °C
